Data reported in ChEMBL document CHEMBL3232827, “Synthesis of substituted pyrimidines as corticotropin releasing factor (CRF) receptor ligands” (Eur J Med Chem, 2014).

Key:
Assay type in all cases: cell membranes
[1] = target: T1, Corticotropin-releasing factor receptor 1 (Homo sapiens) (UniProt P34998); assay: Displacement of [125I]Tyr0sauvagine from human CRF1 receptor expressed in HEK293 cell membrane at 500 nM after 120 mins by gamma scintillation counting analysis
T1 sequence (whole entry): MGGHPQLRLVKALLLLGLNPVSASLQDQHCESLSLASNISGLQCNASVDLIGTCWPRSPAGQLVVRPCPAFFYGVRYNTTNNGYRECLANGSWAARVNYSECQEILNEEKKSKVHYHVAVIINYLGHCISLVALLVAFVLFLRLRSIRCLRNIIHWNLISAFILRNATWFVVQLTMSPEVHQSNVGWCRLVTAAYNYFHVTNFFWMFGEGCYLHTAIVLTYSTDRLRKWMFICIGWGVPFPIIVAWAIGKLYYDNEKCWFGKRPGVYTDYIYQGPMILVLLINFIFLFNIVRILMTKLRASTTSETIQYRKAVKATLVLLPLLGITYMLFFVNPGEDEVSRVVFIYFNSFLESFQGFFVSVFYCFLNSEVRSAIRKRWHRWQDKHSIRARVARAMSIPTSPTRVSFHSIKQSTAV

[2] = target: T2, Corticotropin-releasing factor receptor 1 (Homo sapiens, UniProt P34998); assay: (§1) Displacement of [125I]Tyr0sauvagine from human CRF1 receptor expressed in HEK293 cell membrane after 120 mins by gamma scintillation counting analysis
T2 sequence (P34998 whole entry): T1 sequence (whole entry)

[3] = target: T1, Corticotropin-releasing factor receptor 1 (Homo sapiens); assay: as §1

Compound | inhibition [1] | IC50 [2] | inhibition [3]
CCSc1c(Nc2c(C)cc(C)cc2C)ncnc1N(CCOC)CCOC | < 50% |  | 
CCCCN(CC)c1nc(C)nc(Nc2c(C)cc(C)cc2C)c1SCC | < 50% |  | 
CCCN(CCC)c1nc(C)nc(Nc2ccc(C(C)C)cc2Br)c1SC | < 50% |  | 
CCCN(CCC)c1nc(C)nc(Nc2c(C)cc(C)cc2C)c1SC | < 50% |  | 
CCSc1c(Nc2c(C)cc(C)cc2C)nc(C)nc1N(CC)CC | < 50% |  | 
CCSc1c(Nc2ccc(C(C)C)cc2Br)nc(C)nc1N(CCOC)CCOC | < 50% |  | 
CCCN(CC1CC1)c1ncnc(Nc2c(C)cc(C)cc2C)c1SC | < 50% |  | 
CCSc1c(Nc2c(C)cc(C)cc2C)nc(C)nc1N(CCOC)CCOC |  | 0.589 µM | Dose-dependent effect
CCSc1c(Nc2c(C)cc(C)cc2C)ncnc1N(CC)CC | < 50% |  | 
CCN(CC)c1nc(C)nc(Nc2c(C)cc(C)cc2C)c1SC | < 50% |  | 
CCCN(CCC)c1nc(C)nc(Nc2c(C)cc(C)cc2C)c1SCC |  | 0.537 µM | Dose-dependent effect
CCN(CC)c1nc(C)nc(Nc2ccc(C(C)C)cc2Br)c1SC | < 50% |  | 
COCCN(CCOC)c1nc(C)nc(Nc2ccc(C(C)C)cc2Br)c1SC | < 50% |  | 
CCCN(CCC)c1ncnc(Nc2c(C)cc(C)cc2C)c1SC | < 50% |  | 
CCSc1c(Nc2ccc(C(C)C)cc2Br)nc(C)nc1N(CC)CC | < 50% |  | 
CCCN(CC1CC1)c1nc(C)nc(Nc2ccc(C(C)C)cc2Br)c1SCC | < 50% |  | 
CCCN(CC1CC1)c1nc(C)nc(Nc2c(C)cc(C)cc2C)c1SCC |  | 0.245 µM | Dose-dependent effect
CCCCN(CC)c1nc(C)nc(Nc2ccc(C(C)C)cc2Br)c1SCC | < 50% |  | 
COCCN(CCOC)c1nc(C)nc(Nc2c(C)cc(C)cc2C)c1SC |  | 0.275 µM | Dose-dependent effect
COCCN(CCOC)c1ncnc(Nc2c(C)cc(C)cc2C)c1SC | < 50% |  | 
CCCCN(CC)c1nc(C)nc(Nc2ccc(C(C)C)cc2Br)c1SC | < 50% |  | 
CCCCN(CC)c1nc(C)nc(Nc2c(C)cc(C)cc2C)c1SC | < 50% |  | 
CCCN(CCC)c1ncnc(Nc2c(C)cc(C)cc2C)c1SCC | < 50% |  | 
CCCN(CC1CC1)c1nc(C)nc(Nc2ccc(C(C)C)cc2Br)c1SC | < 50% |  | 
CCCN(CCC)c1nc(C)nc(Nc2ccc(C(C)C)cc2Br)c1SCC | < 50% |  | 
CCCCN(CC)c1nc(C)nc2c1c(C)c(C)n2-c1c(C)cc(C)cc1C [ANTALARMIN] |  | 0.0186 µM | 
CCCCN(CC)c1ncnc(Nc2c(C)cc(C)cc2C)c1SC | < 50% |  | 
CCCN(CC1CC1)c1nc(C)nc(Nc2c(C)cc(C)cc2C)c1SC | < 50% |  | 
CCCCN(CC)c1ncnc(Nc2c(C)cc(C)cc2C)c1SCC | < 50% |  | 
